The text below walks through data of patent US9730943B2, “Alkoxy-substituted 2,3-dihydroimidazo[1,2-C]quinazolines” (BAYER INTELLECTUAL PROPERTY GMBH, priority 2010, dated 2017).

A value given as a limit tells only on which side of the number the result lay.

Experiment [1] addresses T1, PI3Kα (Homo sapiens, UniProt P42336).
T1 construct: N-terminal His6-tagged recombinant full-length human p110α; His6 (N); purchased Millipore 14-602; host or cells: baculovirus infected Sf21 insect cells
The experiment in a line: PI3Kα kinase assay (HTRF-based PI3K inhibition assay). To be noted: for inhibition at 0.93 µM: 0.93 μM compound, read-out: PI3K alpha average % Inhibition at 0.93 μM; for IC50: complex of human p110α and human p85α, 10 μM ATP, 10 μM PIP2, read-out: average IC50 in the PI3K alpha biochemical assay. It counts as biochemical. The text has this:
Determination of % Inhibition and IC50 Values of Compounds in PI3Kα Kinase Assay
PI3Kα inhibitory activity of compounds of the present invention was quantified employing the HTRF-based PI3K inhibition assay as described below.
(§1) As reagents for the kinase reaction itself and the quantification of the reaction product, the PI3-Kinase HTRF Assay kit from Millipore (#33-017) was used. With this kit the phosphatidylinositol 3,4,5-trisphosphate (PIP3) generated in the kinase reaction is detected by displacement of a biotinylated ligand from an energy transfer complex consisting of a Europium-labeled anti-GST monoclonal antibody, a GST-tagged PH domain, biotinylated PIP3 and Streptavidin-Allophycocyanin (APC).
(§2) For the assay 50 nL of a 80-fold concentrated solution of the test compound in DMSO was pipetted into a black low volume 384-well microtiter plate (Greiner Bio-One, Frickenhausen, Germany), 3 μL of a solution of PI3Kα and phosphatidylinositol-4,5-bisphosphate (PIP2, 13.8 μM=>final conc. in 4 μl reaction volume=10 μM) in 1× reaction buffer (exact composition not disclosed by the vendor) were added and the mixture was incubated for 15 min at 22° C. to allow pre-binding of the test compounds to the enzyme before the start of the kinase reaction. The amount of PI3Kα was chosen to have the enzyme reaction in the linear range and depended on the activity of the individual lot, typical concentrations in assay were in the range of 90 ng/mL. Then the kinase reaction was started by the addition of 1 μL of a solution of adenosine triphosphate (ATP, 40 μM=>final conc. in the 4 μL assay volume is 10 μM) in reaction buffer and the resulting mixture was incubated for a reaction time of 20 min at 22° C.
The reaction was stopped by the addition of 1 μL of an stop solution (containing the biotinylated PIP3 used as a tracer), then 1 μL detection mix (containing a Europium-labeled anti-GST monoclonal antibody, a GST-tagged PH domain, and Streptavidin-Allophycocyanin) was added and resulting mixture was incubated 3 h at 22° C. to allow the formation of complexes between the detection reagents and either the PIP3 generated in the kinase reaction, or the biotinylated PIP3 added with the stop solution. Subsequently, the amount of energy transfer complex consisting of a Europium-labeled anti-GST monoclonal antibody, a GST-tagged PH domain, biotinylated PIP3 and Streptavidin-Allophycocyanin (APC) was evaluated by measurement of the resonance energy transfer from the Europium-labeled anti-GST monoclonal antibody to the Streptavidin-Allophycocyanin. Therefore, the fluorescence emissions at 620 nm and 665 nm after excitation at 350 nm were measured using a TR-FRET reader, e.g., a Pherastar (BMG Labtechnologies, Offenburg, Germany) or a Viewlux (Perkin-Elmer). The ratio of the emissions at 665 nm and at […] was taken as the measure for the amount of biotinylated PIP3 bound to the GST-tagged PH domain, which is negatively correlated with the amount of PIP3 generated. […] Normally test compounds were tested on the same microtiter plate at 10 different concentrations in the range of 25 μM to 1.3 nM (25 μM, 8.3 μM, 2.8 μM, 0.93 μM, 0.31 μM, 103 nM, 34 nM, 11 nM, 3.8 nM and 1.3 nM, a dilution series prepared before the assay at the level of the 80-fold conc. stock solutions by serial 1:3 dilutions) in duplicate values for each concentration and […] values were calculated by a 4-parameter fit using in-house software.
(In TR-FRET formats the signal depends on donor and acceptor labels being close together.)

Experiment [2] concerns the target T2, PI3Kβ (Homo sapiens, UniProt P42338).
T2 construct: N-terminal His6-tagged recombinant full-length human p110β; His6 (N); purchased Millipore 14-603; host or cells: baculovirus infected Sf21 insect cells
The experiment in a line: PI3Kβ kinase assay (HTRF based PI3K inhibition assay). Particulars: for inhibition at 0.93 µM: 0.93 μM compound, read-out: PI3K beta average % Inhibition at 0.93 μM; for IC50: complex of human p110β and human p85α, 10 μM ATP, 10 μM PIP2, read-out: average IC50 in the PI3K beta biochemical assay; for PI3K beta average IC50/ PI3K alpha average IC50: ratio of PI3K beta IC50 to PI3K alpha IC50 (A2 and A1). The class given is biochemical.
Text: Determination of % Inhibition and IC50 Values of Compounds in PI3Kβ Kinase Assay
PI3Kβ inhibitory activity of compounds of the present invention was quantified employing the HTRF based PI3K inhibition assay as described below.
as §1
as §2, with “3 μl” for “3 μL”, “of PI3Kβ” for “of PI3Kα”, “of 120” for “of 90”, “4 μl” for “4 μL”
The reaction was stopped by the addition of 1 μL of an stop solution (containing the biotinylated PIP3 used as a tracer). Then 1 μL detection mix (containing a Europium-labeled anti-GST monoclonal antibody, a GST-tagged PH domain, and Streptavidin-Allophycocyanin) was added and resulting mixture was incubated for 3 h at 22° C. to allow the formation of complexes between the detection reagents and either the PIP3 generated in the kinase reaction, or the biotinylated PIP3 added with the stop solution. Subsequently the amount of energy transfer complex consisting of a Europium-labeled anti-GST monoclonal antibody, a GST-tagged PH domain, biotinylated PIP3 and Streptavidin-Allophycocyanin (APC) was evaluated by measurement of the resonance energy transfer from the Europium-labeled anti-GST monoclonal antibody to the Streptavidin-Allophycocyanin. Therefore, the fluorescence emissions at 620 nm and 665 nm after excitation at 350 nm were measured using a TR-FRET reader, e.g., a Pherastar (BMG Labtechnologies, Offenburg, Germany) or a Viewlux (Perkin-Elmer). The ratio of the emissions at 665 nm and at […] were taken as the measure for the amount of biotinylated PIP3 bound to the GST-tagged PH domain, which is negatively correlated with the amount of PIP3 generated.

T2 sequence (P42338 whole entry): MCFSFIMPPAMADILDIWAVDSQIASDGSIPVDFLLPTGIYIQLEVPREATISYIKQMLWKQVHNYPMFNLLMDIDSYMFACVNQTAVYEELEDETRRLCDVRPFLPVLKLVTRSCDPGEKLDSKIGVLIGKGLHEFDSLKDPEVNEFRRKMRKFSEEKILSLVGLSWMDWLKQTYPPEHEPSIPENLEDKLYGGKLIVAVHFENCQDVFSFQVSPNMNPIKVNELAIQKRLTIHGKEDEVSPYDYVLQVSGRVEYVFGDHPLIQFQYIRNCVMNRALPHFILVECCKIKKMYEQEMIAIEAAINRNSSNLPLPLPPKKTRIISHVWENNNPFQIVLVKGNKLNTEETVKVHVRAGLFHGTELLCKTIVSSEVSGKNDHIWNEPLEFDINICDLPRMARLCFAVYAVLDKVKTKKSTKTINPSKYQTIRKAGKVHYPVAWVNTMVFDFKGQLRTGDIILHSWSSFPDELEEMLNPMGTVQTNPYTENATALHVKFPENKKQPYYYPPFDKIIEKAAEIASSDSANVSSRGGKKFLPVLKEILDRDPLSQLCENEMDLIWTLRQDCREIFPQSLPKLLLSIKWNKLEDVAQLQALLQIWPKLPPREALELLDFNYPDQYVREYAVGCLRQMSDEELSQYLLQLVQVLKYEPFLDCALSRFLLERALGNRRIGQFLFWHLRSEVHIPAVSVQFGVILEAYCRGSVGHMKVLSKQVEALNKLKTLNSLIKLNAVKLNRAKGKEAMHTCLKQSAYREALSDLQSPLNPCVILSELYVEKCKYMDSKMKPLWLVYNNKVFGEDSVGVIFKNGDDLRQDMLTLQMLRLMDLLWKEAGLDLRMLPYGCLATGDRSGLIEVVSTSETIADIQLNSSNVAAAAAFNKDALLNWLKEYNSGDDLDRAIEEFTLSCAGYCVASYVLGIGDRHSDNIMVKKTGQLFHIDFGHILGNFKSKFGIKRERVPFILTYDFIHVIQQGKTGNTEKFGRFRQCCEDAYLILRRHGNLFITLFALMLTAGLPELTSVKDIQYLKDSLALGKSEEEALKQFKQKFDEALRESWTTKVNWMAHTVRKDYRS
T2 sequence (P27986 whole entry partner): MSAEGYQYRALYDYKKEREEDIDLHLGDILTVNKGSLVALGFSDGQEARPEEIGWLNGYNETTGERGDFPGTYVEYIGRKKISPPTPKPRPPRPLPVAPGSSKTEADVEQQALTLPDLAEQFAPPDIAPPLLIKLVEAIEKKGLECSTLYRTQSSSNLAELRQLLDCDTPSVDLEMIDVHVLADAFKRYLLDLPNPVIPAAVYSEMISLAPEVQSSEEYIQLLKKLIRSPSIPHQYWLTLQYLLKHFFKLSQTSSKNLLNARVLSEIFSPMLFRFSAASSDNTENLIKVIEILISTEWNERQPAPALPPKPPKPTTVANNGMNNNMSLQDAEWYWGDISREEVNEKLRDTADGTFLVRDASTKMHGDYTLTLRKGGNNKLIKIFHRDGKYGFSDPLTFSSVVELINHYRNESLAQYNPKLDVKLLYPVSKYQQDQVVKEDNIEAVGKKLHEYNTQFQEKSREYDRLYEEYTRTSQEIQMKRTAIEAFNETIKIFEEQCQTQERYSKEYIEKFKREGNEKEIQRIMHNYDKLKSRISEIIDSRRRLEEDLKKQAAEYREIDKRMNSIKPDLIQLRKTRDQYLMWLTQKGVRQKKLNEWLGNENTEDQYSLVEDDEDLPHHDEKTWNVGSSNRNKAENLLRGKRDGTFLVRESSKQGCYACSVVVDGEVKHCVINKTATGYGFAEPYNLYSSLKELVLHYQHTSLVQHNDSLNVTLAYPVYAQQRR
T1 sequence (P42336 whole entry): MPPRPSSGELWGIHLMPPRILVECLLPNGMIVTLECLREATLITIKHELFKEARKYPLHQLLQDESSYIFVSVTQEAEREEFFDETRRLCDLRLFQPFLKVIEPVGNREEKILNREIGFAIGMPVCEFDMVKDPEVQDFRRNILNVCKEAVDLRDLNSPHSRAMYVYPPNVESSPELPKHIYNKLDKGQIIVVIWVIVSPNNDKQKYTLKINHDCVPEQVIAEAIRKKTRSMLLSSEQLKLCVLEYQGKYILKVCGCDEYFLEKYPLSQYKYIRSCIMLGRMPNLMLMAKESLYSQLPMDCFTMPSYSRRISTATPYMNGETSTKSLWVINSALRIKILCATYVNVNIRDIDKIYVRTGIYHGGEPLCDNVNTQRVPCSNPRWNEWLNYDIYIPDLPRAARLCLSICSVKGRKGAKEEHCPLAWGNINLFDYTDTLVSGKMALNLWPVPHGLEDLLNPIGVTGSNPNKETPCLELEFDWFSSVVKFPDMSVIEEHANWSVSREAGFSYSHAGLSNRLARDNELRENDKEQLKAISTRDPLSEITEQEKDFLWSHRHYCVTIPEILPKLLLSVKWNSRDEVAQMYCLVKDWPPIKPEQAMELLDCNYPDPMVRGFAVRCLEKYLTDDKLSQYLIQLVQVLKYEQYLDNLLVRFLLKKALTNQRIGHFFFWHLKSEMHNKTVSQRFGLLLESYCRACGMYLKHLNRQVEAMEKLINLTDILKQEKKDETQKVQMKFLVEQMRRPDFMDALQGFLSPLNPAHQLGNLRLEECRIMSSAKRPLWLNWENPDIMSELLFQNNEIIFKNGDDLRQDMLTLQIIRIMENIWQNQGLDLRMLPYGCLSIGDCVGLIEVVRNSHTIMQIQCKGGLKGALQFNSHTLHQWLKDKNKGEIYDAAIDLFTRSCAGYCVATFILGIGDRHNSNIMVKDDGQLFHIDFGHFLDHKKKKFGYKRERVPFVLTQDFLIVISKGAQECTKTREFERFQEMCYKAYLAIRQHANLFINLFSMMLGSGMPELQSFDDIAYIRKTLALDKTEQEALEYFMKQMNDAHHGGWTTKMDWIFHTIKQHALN
T1 sequence (P27986 whole entry partner): as the sequence (P27986 whole entry partner) above

As usually defined, the inhibition is the relative decrease from the control value, in per cent. For orientation: IC50 means the concentration that gives 50% inhibition. Regarding `C[C@@H]1CN(C[C@@](C)(O)COc2ccc3c(c2OCCc2ccc(F)cc2)N=C(NC(=O)c2cnc(N)nc2)N2CCN=C32)C[C@H](C)O1` (relative stereo) [Example 11, rel-2-Amino-N-{8-({(2R)-3-[(2R,6S)-2,6-dimethylmorpholin-4-yl]-2-hydroxy-2-methylpropyl}oxy)-7-[2-(4-fluorophenyl)ethoxy]-2,3-dihydroimidazo[1,2-c]quinazolin-5-yl}pyrimidine-5-carboxamide], in experiment [1], the inhibition at 0.93 µM came out at 109% and the IC50 is below 10 nM. Moreover, in experiment [2], the inhibition at 0.93 µM amounted to 95.3%, the IC50 lay within 10 to 50 nM and the “PI3K beta average IC50/ PI3K alpha average IC50” value turned out to be 9.66.
The corresponding values for `C[C@@H]1CN(C[C@@](C)(O)COc2ccc3c(c2OCCc2ccc(F)cc2)N=C(NC(=O)c2cccnc2)N2CCN=C32)C[C@H](C)O1` (relative stereo) [Example 12, rel-N-{8-({(2R)-3-[(2R,6S)-2,6-Dimethylmorpholin-4-yl]-2-hydroxy-2-methylpropyl}oxy)-7-[2-(4-fluorophenyl)ethoxy]-2,3-dihydroimidazo[1,2-c]quinazolin-5-yl}pyridine-3-carboxamide] are 104%, 10 to 50 nM, 100%, above 50 nM and 3.69.
In the case of `CC(C)N(C[C@@H](O)COc1ccc2c(c1OCCc1ccc(F)cc1)N=C(NC(=O)c1cccnc1)N1CCN=C21)C(C)C` [Example 7, N-(8-{[(2R)-3-(dipropan-2-ylamino)-2-hydroxypropyl]oxy}-7-[2-(4-fluorophenyl)ethoxy]-2,3-dihydroimidazo[1,2-c]quinazolin-5-yl)pyridine-3-carboxamide], in experiment [1], the inhibition at 0.93 µM amounted to 91.5% and the IC50 is below 10 nM. Further, in experiment [2], the inhibition at 0.93 µM was 90%, the IC50 was in the range of 10 to 50 nM and the “PI3K beta average IC50/ PI3K alpha average IC50” value came out at 2.78.
As for `C[C@@H]1CN(C[C@@H](O)COc2ccc3c(c2OCCc2ccc(F)cc2)N=C(NC(=O)c2cccnc2)N2CCN=C32)C[C@H](C)O1` [Example 8, N-{8-({(2R)-3-[(2R,6S)-2,6-Dimethylmorpholin-4-yl]-2-hydroxypropyl}oxy)-7-[2-(4-fluorophenyl)ethoxy]-2,3-dihydroimidazo[1,2-c]quinazolin-5-yl}pyridine-3-carboxamide], in experiment [1], the inhibition at 0.93 µM worked out at 99.9% and the IC50 is 10 to 50 nM. In addition, in experiment [2], the inhibition at 0.93 µM was 96.7%, the IC50 was in the range of 10 to 50 nM and the “PI3K beta average IC50/ PI3K alpha average IC50” value is given as 2.28.
For the molecule `COc1c(OC[C@](C)(O)CN2C[C@@H](C)O[C@@H](C)C2)ccc2c1N=C(NC(=O)c1cccnc1)N1CCN=C21` (relative stereo) [Example 10, rel-N-[8-({(2R)-3-[(2R,6S)-2,6-Dimethylmorpholin-4-yl]-2-hydroxy-2-methylpropyl}oxy)-7-methoxy-2,3-dihydroimidazo[1,2-c]quinazolin-5-yl]pyridine-3-carboxamide], in experiment [1], the inhibition at 0.93 µM came out at 93.2% and the half-inhibitory concentration (IC50) is below 10 nM. Further, in experiment [2], the inhibition at 0.93 µM is 81.6%, the 50% inhibitory concentration (IC50) was above 50 nM and the “PI3K beta average IC50/ PI3K alpha average IC50” value was determined as 8.95.
As to `COc1c(OC[C@H](O)CN2CCOCC2)ccc2c1N=C(NC(=O)c1cccnc1)N1CCN=C21` [Example 2, N-(8-{[(2R)-2-hydroxy-3-(morpholin-4-yl)propyl]oxy}-7-methoxy-2,3-dihydroimidazo[1,2-c]quinazolin-5-yl)pyridine-3-carboxamide], in experiment [2], the inhibition at 0.93 µM worked out at 94.4%.
For the molecule `O=C(NC1=Nc2c(ccc(OCC(O)CN3CCOCC3)c2OCCc2ccc(F)cc2)C2=NCCN12)c1cccnc1` (stereo not shown) [Example 9, N-{7-[2-(4-Fluorophenyl)ethoxy]-8-[2-hydroxy-3-(morpholin-4-yl)propoxy]-2,3-dihydroimidazo[1,2-c]quinazolin-5-yl}pyridine-3-carboxamide], in experiment [1], the inhibition at 0.93 µM worked out at 98.8% and the IC50 was 10 to 50 nM. Further, in experiment [2], the inhibition at 0.93 µM was 102%, the IC50 is below 10 nM and the “PI3K beta average IC50/ PI3K alpha average IC50” value is given as 0.63.
